Measured values from patent publication US20250243171A1, “QUINAZOLINE COMPOUNDS FOR TREATMENT OF DISEASE” (Arthrosi Therapeutics, Inc., priority 2021, published 2025).

Key:
Test in all cases: EC50 assay: Ba/F3 stable cell proliferation (CCK-8, 72 h)
Format in all cases: cell-based
Ba/F3 stable cells [1] = target: T1, Ba/F3 stable cells (Homo sapiens, UniProt P00533, DUP767-769, cells depend on it); conditions: Ba/F3-EGFR V769-D770insASV cells
T1 construct: EC50 Ba/F3-EGFR V769-D770insASV; other: Ba/F3-EGFR V769-D770insASV cells, 72 h, CCK-8
In short: (§1)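 Ba/F3 stable cells were seeded at 4,000 cells/90 μL/well in 96-well plates and held 2 h at 37° C. in 5% CO2, then given 10 μL of serially titrated compound (0.1% DMSO final). After 72 h at 37° C., CCK-8 reagent was added for 4 hours and absorbance read at 450 nm to derive EC50.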

Ba/F3 stable cells [2] = target: T2, Ba/F3 stable cells (Homo sapiens, UniProt P00533, DUP768-770, cells depend on it); conditions: Ba/F3-EGFR D770-N771insSVD cells
T2 construct: EC50 Ba/F3-EGFR D770-N771insSVD; other: Ba/F3-EGFR D770-N771insSVD cells, 72 h, CCK-8
In short: as §1

Ba/F3 stable cells [3] = target: T3, Ba/F3 stable cells (Homo sapiens, UniProt P00533, DUP771-773, cells depend on it); conditions: Ba/F3-EGFR H773-V774insNPH cells
T3 construct: EC50 Ba/F3-EGFR H773-V774insNPH; other: Ba/F3-EGFR H773-V774insNPH cells, 72 h, CCK-8
In short: as §1

Ba/F3 stable cells [4] = target: T4, Ba/F3 stable cells (Homo sapiens, UniProt P00533, INS763FQEA, cells depend on it); conditions: Ba/F3-EGFR A763-Y764insFQEA cells
T4 construct: EC50 Ba/F3-EGFR A763-Y764insFQEA; other: Ba/F3-EGFR A763-Y764insFQEA cells, 72 h, CCK-8
In short: as §1

Ba/F3 stable cells [5] = target: T5, Ba/F3 stable cells (Homo sapiens, UniProt P00533, T790M/L858R, cells depend on it); conditions: Ba/F3-EGFR L858R-T790M cells
T5 construct: EC50 Ba/F3-EGFR L858R-T790M; other: Ba/F3-EGFR L858R-T790M cells, 72 h, CCK-8
In short: as §1

Ba/F3 stable cells [6] = target: T6, Ba/F3 stable cells (Homo sapiens, UniProt P04626, DUP772-775, cells depend on it); conditions: Ba/F3-HER2 A775-G776insYVMA cells
T6 construct: EC50 Ba/F3-HER2 A775-G776insYVMA; other: Ba/F3-HER2 A775-G776insYVMA cells, 72 h, CCK-8
In short: as §1

T4 sequence (P00533 with tags, fused parts or gaps INS763FQEA): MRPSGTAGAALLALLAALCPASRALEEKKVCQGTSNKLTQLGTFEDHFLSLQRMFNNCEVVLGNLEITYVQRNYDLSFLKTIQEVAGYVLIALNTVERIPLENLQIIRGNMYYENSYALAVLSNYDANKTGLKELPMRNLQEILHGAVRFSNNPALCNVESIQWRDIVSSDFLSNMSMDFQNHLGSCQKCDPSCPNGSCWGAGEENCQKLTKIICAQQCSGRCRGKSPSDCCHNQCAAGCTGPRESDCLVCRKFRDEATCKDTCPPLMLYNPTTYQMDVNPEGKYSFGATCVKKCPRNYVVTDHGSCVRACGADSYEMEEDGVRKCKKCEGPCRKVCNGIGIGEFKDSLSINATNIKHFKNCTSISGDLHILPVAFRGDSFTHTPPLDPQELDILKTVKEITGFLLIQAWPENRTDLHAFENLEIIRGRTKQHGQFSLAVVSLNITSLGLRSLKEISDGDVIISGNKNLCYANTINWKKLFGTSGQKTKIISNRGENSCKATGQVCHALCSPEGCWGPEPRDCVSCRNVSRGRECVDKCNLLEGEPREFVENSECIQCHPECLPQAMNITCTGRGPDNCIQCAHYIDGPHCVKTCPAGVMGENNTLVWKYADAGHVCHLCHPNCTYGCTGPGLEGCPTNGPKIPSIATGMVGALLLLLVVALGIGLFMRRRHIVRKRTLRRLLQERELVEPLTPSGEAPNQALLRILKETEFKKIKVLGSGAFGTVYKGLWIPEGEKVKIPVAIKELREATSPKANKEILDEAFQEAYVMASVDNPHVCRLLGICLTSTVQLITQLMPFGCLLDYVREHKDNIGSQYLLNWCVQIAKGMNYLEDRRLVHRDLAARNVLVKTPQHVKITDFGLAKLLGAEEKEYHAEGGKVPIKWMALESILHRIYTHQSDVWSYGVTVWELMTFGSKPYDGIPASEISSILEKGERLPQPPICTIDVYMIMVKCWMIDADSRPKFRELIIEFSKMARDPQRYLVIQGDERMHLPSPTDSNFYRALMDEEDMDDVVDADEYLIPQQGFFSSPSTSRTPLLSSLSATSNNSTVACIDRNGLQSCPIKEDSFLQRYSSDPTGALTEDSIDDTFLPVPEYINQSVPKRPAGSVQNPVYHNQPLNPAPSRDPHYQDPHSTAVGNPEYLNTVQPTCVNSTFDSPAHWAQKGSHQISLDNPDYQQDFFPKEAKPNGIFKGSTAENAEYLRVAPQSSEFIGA
T5 sequence (P00533 whole entry T790M/L858R): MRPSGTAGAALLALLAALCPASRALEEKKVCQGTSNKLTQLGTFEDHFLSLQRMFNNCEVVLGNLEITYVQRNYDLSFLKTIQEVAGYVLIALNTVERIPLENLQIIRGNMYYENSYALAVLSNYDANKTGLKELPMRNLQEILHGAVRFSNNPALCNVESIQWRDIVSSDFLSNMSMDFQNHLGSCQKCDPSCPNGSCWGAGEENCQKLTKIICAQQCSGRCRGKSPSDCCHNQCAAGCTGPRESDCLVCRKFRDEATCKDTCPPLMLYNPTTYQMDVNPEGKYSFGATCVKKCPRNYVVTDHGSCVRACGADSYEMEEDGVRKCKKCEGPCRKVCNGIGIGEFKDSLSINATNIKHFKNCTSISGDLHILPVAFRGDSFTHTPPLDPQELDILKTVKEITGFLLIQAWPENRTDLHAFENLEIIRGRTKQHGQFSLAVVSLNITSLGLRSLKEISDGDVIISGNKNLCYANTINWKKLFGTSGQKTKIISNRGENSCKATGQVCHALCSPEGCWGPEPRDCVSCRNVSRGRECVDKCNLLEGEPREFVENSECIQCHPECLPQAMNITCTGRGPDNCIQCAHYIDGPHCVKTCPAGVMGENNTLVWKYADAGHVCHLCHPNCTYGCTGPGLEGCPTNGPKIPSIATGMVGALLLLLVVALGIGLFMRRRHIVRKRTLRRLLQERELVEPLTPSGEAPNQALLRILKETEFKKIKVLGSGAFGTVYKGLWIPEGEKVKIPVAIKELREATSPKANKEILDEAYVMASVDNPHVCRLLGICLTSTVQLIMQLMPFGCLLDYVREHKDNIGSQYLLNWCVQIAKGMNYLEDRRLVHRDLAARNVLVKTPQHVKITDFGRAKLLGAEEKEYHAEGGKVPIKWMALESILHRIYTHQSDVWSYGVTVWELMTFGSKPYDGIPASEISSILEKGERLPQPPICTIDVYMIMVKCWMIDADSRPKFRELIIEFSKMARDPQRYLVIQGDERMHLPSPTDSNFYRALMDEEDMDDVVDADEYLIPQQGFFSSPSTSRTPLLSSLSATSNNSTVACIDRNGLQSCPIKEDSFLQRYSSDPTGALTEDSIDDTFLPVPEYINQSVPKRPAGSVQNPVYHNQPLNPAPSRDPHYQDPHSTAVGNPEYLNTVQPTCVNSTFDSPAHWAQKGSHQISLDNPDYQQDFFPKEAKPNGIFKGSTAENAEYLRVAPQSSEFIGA
T2 sequence (P00533 with tags, fused parts or gaps DUP768-770): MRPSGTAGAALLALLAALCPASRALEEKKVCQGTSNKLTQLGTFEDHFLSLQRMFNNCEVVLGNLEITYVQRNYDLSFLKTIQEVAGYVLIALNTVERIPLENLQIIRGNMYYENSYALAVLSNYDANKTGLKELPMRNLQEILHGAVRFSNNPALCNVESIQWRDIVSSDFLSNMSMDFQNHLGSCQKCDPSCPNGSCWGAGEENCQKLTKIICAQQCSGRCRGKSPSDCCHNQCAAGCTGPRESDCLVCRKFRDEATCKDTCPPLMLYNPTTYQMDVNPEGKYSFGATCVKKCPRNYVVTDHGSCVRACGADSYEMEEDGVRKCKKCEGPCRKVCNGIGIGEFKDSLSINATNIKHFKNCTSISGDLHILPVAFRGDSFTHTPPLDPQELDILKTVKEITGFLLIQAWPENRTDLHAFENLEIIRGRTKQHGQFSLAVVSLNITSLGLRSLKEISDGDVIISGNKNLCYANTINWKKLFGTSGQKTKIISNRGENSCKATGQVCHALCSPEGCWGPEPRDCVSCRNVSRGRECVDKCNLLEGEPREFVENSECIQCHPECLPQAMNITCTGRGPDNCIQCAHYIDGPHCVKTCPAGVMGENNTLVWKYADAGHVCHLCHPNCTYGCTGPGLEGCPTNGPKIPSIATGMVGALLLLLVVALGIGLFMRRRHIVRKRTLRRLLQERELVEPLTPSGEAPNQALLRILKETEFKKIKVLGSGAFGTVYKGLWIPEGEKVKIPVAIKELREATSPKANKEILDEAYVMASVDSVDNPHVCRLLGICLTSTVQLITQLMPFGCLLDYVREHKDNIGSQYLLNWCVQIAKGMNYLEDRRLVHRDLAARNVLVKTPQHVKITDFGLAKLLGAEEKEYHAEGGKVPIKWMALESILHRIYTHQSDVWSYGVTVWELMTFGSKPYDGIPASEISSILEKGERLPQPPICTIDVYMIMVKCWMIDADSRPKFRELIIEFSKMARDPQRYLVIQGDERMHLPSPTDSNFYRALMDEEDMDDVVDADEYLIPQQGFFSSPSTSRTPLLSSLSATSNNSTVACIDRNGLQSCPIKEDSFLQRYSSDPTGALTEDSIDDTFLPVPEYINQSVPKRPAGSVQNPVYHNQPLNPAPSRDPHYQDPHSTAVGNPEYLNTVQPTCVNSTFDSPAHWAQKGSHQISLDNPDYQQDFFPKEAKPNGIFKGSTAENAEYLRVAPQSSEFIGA
T3 sequence (P00533 with tags, fused parts or gaps DUP771-773): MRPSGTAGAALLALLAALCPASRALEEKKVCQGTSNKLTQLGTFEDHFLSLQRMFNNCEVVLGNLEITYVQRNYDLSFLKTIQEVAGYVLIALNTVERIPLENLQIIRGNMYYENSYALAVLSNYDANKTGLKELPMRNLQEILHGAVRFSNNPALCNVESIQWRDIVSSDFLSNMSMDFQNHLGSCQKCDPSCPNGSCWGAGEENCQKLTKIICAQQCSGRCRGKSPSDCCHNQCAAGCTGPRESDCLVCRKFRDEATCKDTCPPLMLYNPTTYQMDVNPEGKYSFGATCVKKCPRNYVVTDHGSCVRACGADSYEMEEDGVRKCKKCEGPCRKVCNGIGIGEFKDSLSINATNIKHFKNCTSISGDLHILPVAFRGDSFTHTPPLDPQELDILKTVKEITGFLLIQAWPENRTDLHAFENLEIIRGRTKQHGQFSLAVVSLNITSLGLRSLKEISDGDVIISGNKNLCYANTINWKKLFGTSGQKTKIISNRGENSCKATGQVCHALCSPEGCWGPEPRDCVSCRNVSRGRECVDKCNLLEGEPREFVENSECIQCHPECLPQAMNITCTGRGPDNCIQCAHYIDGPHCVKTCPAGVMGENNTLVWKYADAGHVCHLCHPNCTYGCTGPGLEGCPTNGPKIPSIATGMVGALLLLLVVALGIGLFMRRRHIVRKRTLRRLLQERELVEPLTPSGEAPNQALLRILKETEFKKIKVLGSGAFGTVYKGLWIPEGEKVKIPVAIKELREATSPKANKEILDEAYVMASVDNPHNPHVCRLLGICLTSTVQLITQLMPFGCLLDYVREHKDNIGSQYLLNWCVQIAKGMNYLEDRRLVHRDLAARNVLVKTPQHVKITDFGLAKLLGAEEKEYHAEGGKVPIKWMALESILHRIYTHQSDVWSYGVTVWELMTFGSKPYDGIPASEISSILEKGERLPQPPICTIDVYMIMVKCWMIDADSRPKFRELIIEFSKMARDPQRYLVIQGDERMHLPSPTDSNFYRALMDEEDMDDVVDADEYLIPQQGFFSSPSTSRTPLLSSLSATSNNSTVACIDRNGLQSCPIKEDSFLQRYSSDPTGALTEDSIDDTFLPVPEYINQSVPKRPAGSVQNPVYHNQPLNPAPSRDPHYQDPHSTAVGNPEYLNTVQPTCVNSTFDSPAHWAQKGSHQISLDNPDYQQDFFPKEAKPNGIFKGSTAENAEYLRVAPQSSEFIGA

| Structure (SMILES) | EC50 (Ba/F3 stable cells [1]) | EC50 (Ba/F3 stable cells [2]) | EC50 (Ba/F3 stable cells [3]) | EC50 (Ba/F3 stable cells [4]) | EC50 (Ba/F3 stable cells [5]) | EC50 (Ba/F3 stable cells [6]) |
| --- | --- | --- | --- | --- | --- | --- |
| C=CC(=O)N[C@H]1C[C@@H](Oc2cc3c(Nc4cccc5ccccc45)ncnc3cc2OC)C1 [Compound 83, N-((1s,3s)-3-((7-methoxy-4-(naphthalen-1-ylamino)quinazolin-6-yl)oxy)cyclobutyl)acrylamide] | ≤ 0.2 µM | 0.2 to 1 µM | ≤ 0.2 µM | ≤ 0.2 µM | 0.2 to 1 µM | 0.2 to 1 µM |
| C=CC(=O)NC1CC(Oc2cc3c(NCc4ccc(F)cc4)ncnc3cc2OC)C1 (stereo not drawn) [Compound 84, N-(3-((4-((4-fluorobenzyl)amino)-7-methoxyquinazolin-6-yl)oxy)cyclobutyl)acrylamide] | 0.2 to 1 µM | > 1 µM | > 1 µM | ≤ 0.2 µM | > 1 µM | > 1 µM |
| C=CC(=O)NC1CC(Oc2cc3c(Nc4ccc(F)c(Cl)c4)ncnc3cc2OC)C1 (stereo not drawn) [Compound 85, N-(3-((4-((3-chloro-4-fluorophenyl)amino)-7-methoxyquinazolin-6-yl)oxy)cyclobutyl)acrylamide] | 0.2 to 1 µM | > 1 µM | > 1 µM | ≤ 0.2 µM | > 1 µM | > 1 µM |
| C=CC(=O)N[C@H]1C[C@H](Oc2cc3c(Nc4ccc(C#N)c(Cl)c4)ncnc3cc2OC)C1 [Compound 86, N-(3-((4-((3-chloro-4-cyanophenyl)amino)-7-methoxyquinazolin-6-yl)oxy)cyclobutyl)acrylamide] | > 1 µM | > 1 µM | > 1 µM | 0.2 to 1 µM | > 1 µM | > 1 µM |
| C=CC(=O)NC1CC(Oc2cc3c(Nc4ccc(F)c(C#N)c4)ncnc3cc2OC)C1 (stereo not drawn) [Compound 87, N-(3-((4-((3-cyano-4-fluorophenyl)amino)-7-methoxyquinazolin-6-yl)oxy)cyclobutyl)acrylamide] | > 1 µM | > 1 µM | > 1 µM | 0.2 to 1 µM | > 1 µM | > 1 µM |
| C=CC(=O)NC1CC(Oc2cc3c(Nc4cccc5c4CCC5)ncnc3cc2OC)C1 (stereo not drawn) [Compound 88, N-(3-((4-((2,3-dihydro-1H-inden-4-yl)amino)-7-methoxyquinazolin-6-yl)oxy)cyclobutyl)acrylamide] | > 1 µM | > 1 µM | > 1 µM | 0.2 to 1 µM | > 1 µM | > 1 µM |
| C=CC(=O)NC1CC(Oc2cc3c(Nc4cccc5c4CCCC5)ncnc3cc2OC)C1 (stereo not drawn) [Compound 89, N-(3-((7-methoxy-4-((5,6,7,8-tetrahydronaphthalen-1-yl)amino)quinazolin-6-yl)oxy)cyclobutyl)acrylamide] | > 1 µM | > 1 µM | > 1 µM | 0.2 to 1 µM | > 1 µM | > 1 µM |
| C=CC(=O)N[C@H]1CC[C@@H](Oc2cc3c(Nc4ccc(Cl)c(Cl)c4F)ncnc3cc2OC)CC1 [Compound 90, N-((1s,4s)-4-((4-((3,4-dichloro-2-fluorophenyl)amino)-7-methoxyquinazolin-6-yl)oxy)cyclohexyl)acrylamide] | ≤ 0.2 µM | > 1 µM | 0.2 to 1 µM | ≤ 0.2 µM | > 1 µM | > 1 µM |
| C=CC(=O)N[C@H]1CC[C@H](Oc2cc3c(Nc4ccc(Cl)c(Cl)c4F)ncnc3cc2OC)CC1 [Compound 91, N-((1r,4r)-4-((4-((3,4-dichloro-2-fluorophenyl)amino)-7-methoxyquinazolin-6-yl)oxy)cyclohexyl)acrylamide] | 0.2 to 1 µM | 0.2 to 1 µM | 0.2 to 1 µM | ≤ 0.2 µM | > 1 µM | 0.2 to 1 µM |
| C=CC(=O)NC1CC(Nc2cc3c(Nc4ccc(Cl)c(Cl)c4F)ncnc3cc2OC)C1 (stereo not drawn) [Compound 92, N-(3-((4-((3,4-dichloro-2-fluorophenyl)amino)-7-methoxyquinazolin-6-yl)amino)cyclobutyl)acrylamide] | ≤ 0.2 µM | 0.2 to 1 µM | ≤ 0.2 µM | ≤ 0.2 µM | 0.2 to 1 µM | ≤ 0.2 µM |
| C=CC(=O)N1CCC(Oc2cc3c(C(=O)NCc4ccc(F)cc4)ncnc3cc2OC)CC1 [Compound 94, 6-((1-acryloylpiperidin-4-yl)oxy)-N-(4-fluorobenzyl)-7-methoxyquinazoline-4-carboxamide] | > 1 µM | > 1 µM | > 1 µM | ≤ 0.2 µM | > 1 µM | > 1 µM |
| C=CC(=O)N1CCC(Oc2cc3c(C(=O)N[C@H](C)c4ccc(F)cc4)ncnc3cc2OC)CC1 [Compound 95, (R)-6-((1-acryloylpiperidin-4-yl)oxy)-N-(1-(4-fluorophenyl)ethyl)-7-methoxyquinazoline-4-carboxamide] | > 1 µM | > 1 µM | > 1 µM | > 1 µM | > 1 µM | > 1 µM |
| C=CC(=O)NC1CC(Oc2cc3c(C(=O)NCc4ccc(F)cc4)ncnc3cc2OC)C1 (stereo not drawn) [Compound 96, 6-(3-acrylamidocyclobutoxy)-N-(4-fluorobenzyl)-7-methoxyquinazoline-4-carboxamide] | > 1 µM | > 1 µM | > 1 µM | > 1 µM | > 1 µM | > 1 µM |
| C=CC(=O)N[C@H]1C[C@@H](Oc2cc3c(C(=O)N[C@H](C)c4ccc(F)cc4)ncnc3cc2OC)C1 [Compound 97, 6-((1s,3S)-3-acrylamidocyclobutoxy)-N-((R)-1-(4-fluorophenyl)ethyl)-7-methoxyquinazoline-4-carboxamide] | > 1 µM | > 1 µM | > 1 µM | > 1 µM | > 1 µM | > 1 µM |
| C=CC(=O)N1CCC(Oc2cc3c(NC(=O)c4ccc(F)cc4)ncnc3cc2OC)CC1 [Compound 98, N-(6-((1-acryloylpiperidin-4-yl)oxy)-7-methoxyquinazolin-4-yl)-4-fluorobenzamide] | > 1 µM | > 1 µM | > 1 µM | 0.2 to 1 µM | > 1 µM | > 1 µM |
| C=CC(=O)N[C@H]1C[C@@H](Oc2cc3c(Nc4ccc(Cl)c(Cl)c4F)ncnc3cc2O[C@H]2CCOC2)C1 [Compound 99, N-((1R,3s)-3-((4-((3,4-dichloro-2-fluorophenyl)amino)-7-(((S)-tetrahydrofuran-3-yl)oxy)quinazolin-6-yl)oxy)cyclobutyl)acrylamide] | ≤ 0.2 µM | 0.2 to 1 µM | ≤ 0.2 µM | ≤ 0.2 µM | ≤ 0.2 µM | ≤ 0.2 µM |
| C=CC(=O)N[C@H]1C[C@@H](Oc2cc3c(Nc4ccc(Cl)c(Cl)c4F)ncnc3cc2OCCO)C1 [Compound 100, N-((1s,3s)-3-((4-((3,4-dichloro-2-fluorophenyl)amino)-7-(2-hydroxyethoxy)quinazolin-6-yl)oxy)cyclobutyl)acrylamide] | ≤ 0.2 µM | 0.2 to 1 µM | 0.2 to 1 µM | ≤ 0.2 µM | 0.2 to 1 µM | 0.2 to 1 µM |
| C=CC(=O)N[C@H]1C[C@@H](Oc2cc3c(Nc4ccc(Cl)c(Cl)c4F)ncnc3cc2OCCN(C)C)C1 [Compound 101, N-((1s,3s)-3-((4-((3,4-dichloro-2-fluorophenyl)amino)-7-(2-(dimethylamino)ethoxy)quinazolin-6-yl)oxy)cyclobutyl)acrylamide] | 0.2 to 1 µM | > 1 µM | > 1 µM | ≤ 0.2 µM | > 1 µM | > 1 µM |
| [2H]C([2H])([2H])Oc1cc2ncnc(Nc3ccc(Cl)c(Cl)c3F)c2cc1O[C@H]1C[C@@H](NC(=O)C=C)C1 [Compound 102, N-((1s,3s)-3-((4-((3,4-dichloro-2-fluorophenyl)amino)-7-(methoxy-d3)quinazolin-6-yl)oxy)cyclobutyl)acrylamide] | ≤ 0.2 µM | ≤ 0.2 µM | ≤ 0.2 µM | ≤ 0.2 µM | ≤ 0.2 µM | ≤ 0.2 µM |
| C=CC(=O)N[C@H]1C[C@@H](Oc2cc3c(Nc4ccc(Cl)c(Cl)c4F)ncnc3cc2NC)C1 [Compound 103, N-((1s,3s)-3-((4-((3,4-dichloro-2-fluorophenyl)amino)-7-(methylamino)quinazolin-6-yl)oxy)cyclobutyl)acrylamide] | ≤ 0.2 µM | ≤ 0.2 µM | ≤ 0.2 µM | ≤ 0.2 µM | ≤ 0.2 µM | ≤ 0.2 µM |
